For one assay, the target named is xanthine oxidase (XO). To be noted: cited from earlier work; for IC50: literature value, ref He et al. [2019], Mao et al. [2023], Xu, Liu, et al. [2024], read-out: IC50 (XO inhibition).
The target in assay [1] is T1, XO from bovine milk (Bos taurus, UniProt P80457).
T1 construct: XO from bovine milk and xanthine were purchased from Sigma‐Aldrich Corp. (MO, USA); purchased Sigma‐Aldrich Corp. (MO, USA); host or cells: bovine milk (natural source)
The assay is described as follows: XO inhibitory activity by LC-MS/MS quantification of uric acid. It is filed as biochemical. The note with it: for XO inhibitory activity (inhibition ratio): 20 mM, UA by LC-MS/MS (PRM m/z 169.03/70.04) after 30 min, XO 25 U/L, xanthine 0.42 mM, 0.1 M phosphate buffer pH 7.2 containing 0.1 M sodium chloride, mean ± SD; for XO inhibitory activity (inhibition ratio) / Significance of XO inhibition at any concentration / Concentration with significant XO inhibition: n = 3; for Concentration dependence of XO inhibition: Figure 5 or Figure 6; for Significance of XO inhibition at any concentration / Concentration with significant XO inhibition: one-way ANOVA, Tukey-Kramer; for Significance of XO inhibition at any concentration: tryptophan Figure 5, leucine Figure 6; for Concentration with significant XO inhibition: vs. control, Figure 5. The procedure: (§1) Tryptophan and leucine were obtained from Kanto Chemical Co. Ltd. (Tokyo, Japan). The evaluation samples such as peptides and amino acids, and allopurinol (FUJIFILM Wako Pure Chemical Corp., Tokyo, Japan) as a positive control for the evaluation method, were suspended in 0.1 M phosphate buffer pH 7.2 (FUJIFILM Wako Pure Chemical Corp., Tokyo, Japan) containing 0.1 M sodium chloride. The samples were obtained for the assay after sonication for 10 min. XO from bovine milk and xanthine were purchased from Sigma‐Aldrich Corp. (MO, USA). […] The xanthine solution was prepared by diluting it with buffer at a ratio of 1:10.
(§2) Briefly, the samples (e.g., LDQW) or allopurinol were mixed with the XO solution (final concentration: 25 U/L). A mixture added to the buffer instead of the sample was analyzed as a control. […] The sample, XO solution, and xanthine solution were reacted in a 2:1:1 ratio. The assay was performed in triplicate. The XO inhibitory activity was calculated using the following equation: XOinhibitory activity%=1−AbS30min−AbS0min/AbC30min−AbC0min×100
2.3 Determination of XO Inhibitory Activity Using LC–MS/MS
To halt the enzymatic reaction, an equal volume of 1 M HCl, purchased from Kanto Chemical Co. Ltd. (Tokyo, Japan), was promptly added to the mixture after the absorbance was monitored for 30 min (Figure 1A). The mixture was then diluted 50‐fold with water containing 0.2% (v/v) formic acid (FA), which was purchased from Kanto Chemical Co. Ltd. (Tokyo, Japan), to prepare analytical samples for LC–MS/MS. UA in the analytical samples was measured using a Vanquish Ultra‐High‐Performance LC system coupled with a Vanquish variable wavelength detector VF‐D40 and a Q Exactive Focus (Thermo Fisher Scientific Inc., MA, USA). UA in the analytical samples was separated using an XBridge Peptide BEH C18 Column (2.1 mm i.d. × 250 mm, 3.5 μm, Waters Inc., MA, USA).
UA separation was achieved using 0.1% (v/v) FA in water (solvent A) and 0.1% FA in methanol (solvent B, Kanto Chemical Co. Ltd., Tokyo, Japan) with the following gradient over 22 min: 2% B for 5 min, increased from 2% to 10% B over 3 min, from 10% to 80% B over 2 min, held at 80% B for 2 min, decreased from 80% to 2% B over 0.1 min and held at 2% B for 10 min. The column temperature and flow rate were maintained at 40°C and 0.2 mL/min, respectively. During separation, the absorbance was monitored at 290 nm.
MS detection was performed in positive ion mode. […] The peak area detected at a retention time of 4.3 min was analyzed using Thermo Scientific Xcalibur. UA was quantified using the absolute calibration curve method, which was constructed from the peak areas of UA at various concentrations. XO inhibitory activity was calculated as [1 − UAs/UAc] × 100%, where UAs and UAc represent the amount of UA in the samples and control, respectively.
(§3) All experiments were performed in triplicate, with data indicated as mean ± standard deviation (SD). […] One‐way analysis of variance (ANOVA) was used for parametric analyses, followed by the Tukey–Kramer test. p values of < 0.05 were considered statistically significant.

Assay [2] addresses T1, XO from bovine milk. As to the kind of experiment: XO inhibitory activity by absorptiometry (absorbance at 290 nm, microplate reader). The format is biochemical. To be noted: for Suppression of the absorbance increase / enzymatic reaction compared with control (relative absorbance): 290 nm every 5 min for 30 min, Figure 2; for Concentration dependence of XO inhibitory activity / Concentration with significant XO inhibition: absorptiometry; for Concentration with significant XO inhibition: vs. control, p < 0.01, one-way ANOVA, Tukey-Kramer. Here is the method: as §1
2.2 Enzymatic Reaction and Monitoring of Absorbance Using a Microplate Reader
as §2
AbS30min : Absorbance of the sample at 30 min.
AbS0min : Absorbance of the sample at 0 min.
AbC30min : Absorbance of the control at 30 min.
AbC0min : Absorbance of the control at 0 min.
as §3

For assay [3], the system named is rat model of hyperuricemia. To be noted: ref Qi et al. [2023], [2024]; cited from earlier work. An excerpt: As study limitations, the mechanism for alleviating hyperuricemia is known to involve not only XO activity inhibition but also other factors, such as UA excretion promotion and UA reabsorption inhibition (Cicero et al. [2021]).
Assay [4] deals with rat model of hyperuricemia. To be noted: orally administered, ref He et al. [2024], Qi et al. [2022a]; cited from earlier work. The text has this:
There have been numerous reports on bioactive peptides with XO inhibitory activity.

Setting [5] is: experiment of Figure 6 (DQW fragment).
[6] abbreviates: 20 mM, absorbance at 290 nm, 0-30 min, XO 25 U/L, xanthine 0.42 mM, 0.1 M phosphate buffer pH 7.2 containing 0.1 M sodium chloride, mean ± SD, n = 3, Figure 3.
The mark [7] stands for this setting: 1-20 mM tested, n = 3, Figure 3.

Where two headings read alike, the source gives them in different places. Residues, ends and D or L forms follow the SMILES beside them. No end group written: not given here.

T1 sequence (P80457 whole entry): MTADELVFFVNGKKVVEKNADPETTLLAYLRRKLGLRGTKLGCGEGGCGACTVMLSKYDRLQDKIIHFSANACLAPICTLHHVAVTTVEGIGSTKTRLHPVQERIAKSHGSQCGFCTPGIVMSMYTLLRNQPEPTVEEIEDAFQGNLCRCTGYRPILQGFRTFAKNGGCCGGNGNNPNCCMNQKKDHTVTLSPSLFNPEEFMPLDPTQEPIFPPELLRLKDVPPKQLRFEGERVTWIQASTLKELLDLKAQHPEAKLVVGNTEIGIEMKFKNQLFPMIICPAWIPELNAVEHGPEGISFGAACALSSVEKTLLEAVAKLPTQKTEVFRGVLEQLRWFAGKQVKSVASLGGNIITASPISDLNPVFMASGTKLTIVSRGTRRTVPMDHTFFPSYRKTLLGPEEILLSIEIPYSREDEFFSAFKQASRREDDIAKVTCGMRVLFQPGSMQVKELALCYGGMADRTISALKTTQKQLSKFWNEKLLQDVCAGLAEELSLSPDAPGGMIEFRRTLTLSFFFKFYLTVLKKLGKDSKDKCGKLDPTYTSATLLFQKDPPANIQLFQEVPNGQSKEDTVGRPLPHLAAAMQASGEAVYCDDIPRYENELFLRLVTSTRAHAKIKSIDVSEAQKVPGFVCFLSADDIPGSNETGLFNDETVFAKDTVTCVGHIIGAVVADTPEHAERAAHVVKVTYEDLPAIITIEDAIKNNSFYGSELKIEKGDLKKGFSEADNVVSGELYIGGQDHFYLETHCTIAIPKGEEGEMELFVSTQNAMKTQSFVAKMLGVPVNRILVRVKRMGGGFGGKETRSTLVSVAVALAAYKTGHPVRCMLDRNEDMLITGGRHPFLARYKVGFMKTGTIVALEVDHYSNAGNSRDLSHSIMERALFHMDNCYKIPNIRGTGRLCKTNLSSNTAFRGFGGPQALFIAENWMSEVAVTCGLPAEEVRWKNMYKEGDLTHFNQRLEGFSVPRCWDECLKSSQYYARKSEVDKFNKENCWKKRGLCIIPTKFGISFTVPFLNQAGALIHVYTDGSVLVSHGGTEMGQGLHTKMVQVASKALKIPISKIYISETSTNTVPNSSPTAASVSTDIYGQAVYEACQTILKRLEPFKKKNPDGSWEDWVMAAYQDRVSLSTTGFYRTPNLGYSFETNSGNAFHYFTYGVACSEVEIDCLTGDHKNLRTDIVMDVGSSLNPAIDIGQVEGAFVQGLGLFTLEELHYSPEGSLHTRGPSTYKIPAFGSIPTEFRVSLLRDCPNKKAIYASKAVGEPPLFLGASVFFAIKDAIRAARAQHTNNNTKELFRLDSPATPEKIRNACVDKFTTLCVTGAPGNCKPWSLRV

Ala‐Leu: the IC50 – broadly, the concentration that inhibits the measured activity by half – on xanthine oxidase (XO) is 34.5 mM.

Turning to Asp‐Gln‐Trp [DQW], the “XO inhibitory activity (inhibition ratio)” value at XO from bovine milk [1] (setting [5]) is reported as 48.4% ± 8.5. On XO from bovine milk [1] (LC-MS/MS), the “XO inhibitory activity in comparison with another peptide” value is given as “comparable to that of LDQW” and the “Concentration dependence of XO inhibition” value is reported as “significantly inhibited XO activity in a concentration‐dependent manner”.

In the case of YNITGW, at xanthine oxidase (XO), the IC50 is 9.8 mM.

With `CC(C)C[C@H](N)C(=O)O` [leucine], at XO from bovine milk [1] (LC-MS/MS), the “Significance of XO inhibition at any concentration” value is given as “no significant XO inhibition was observed”.

With Ala‐Met, the half-maximal inhibitory concentration (IC50) at xanthine oxidase (XO) is 40.5 mM.

`CC(C)C[C@H](N)C(=O)N[C@@H](CC(=O)O)C(=O)N[C@@H](CCC(N)=O)C(=O)N[C@@H](Cc1c[nH]c2ccccc12)C(=O)O` [LDQW, Leu‐Asp‐Gln‐Trp] (H-LDQW-OH): the results for the “XO inhibitory activity (inhibition ratio)” value on XO from bovine milk [1] (experiment of Figure 5) and at XO from bovine milk [1] (setting [5]) were 58.0% ± 2.8 and 57.9% ± 3.2, respectively. The inhibition – broadly, how much of the control response was suppressed – at 20000 µM against XO from bovine milk [2] (setting [6]) turned out to be 96.4%.

On to Pro‐Met, for which the IC50 at xanthine oxidase (XO) was 23.8 mM.

As for Leu‐Leu‐Trp [LLW], the “XO inhibition reported earlier” value in the assay on xanthine oxidase (XO) (ref Qi et al. [2023], [2024]) is recorded as “known for their XO inhibitory activities”. Moreover, in assay [3], the “Expression of genes related to UA synthesis in the liver” value was “reduce the expression of genes related to UA synthesis in the liver” and the “Gene expression for UA excretion in the kidneys” value is “enhance gene expression for UA excretion in the kidneys”.

Take `N[C@@H](Cc1c[nH]c2ccccc12)C(=O)O` [tryptophan]: the “XO inhibitory activity (inhibition ratio)” value on XO from bovine milk [1] (experiment of Figure 5) was 4.4% ± 3.7. For the same compound, at XO from bovine milk [1] (LC-MS/MS), the “Significance of XO inhibition at any concentration” value was “did not exhibit significant XO inhibition at any concentration”. For the same compound, on XO from bovine milk [2] (setting [6]), testing at 20000 µM gave an inhibition of 95.2%. Also, the “Suppression of the absorbance increase / enzymatic reaction compared with control (relative absorbance)” value on XO from bovine milk [2] (n = 3) is recorded as “the enzymatic reaction by XO was suppressed compared with the control”. The “Concentration dependence of XO inhibitory activity” value on XO from bovine milk [2] (Figure 3) is reported as “increased with rising concentrations in a concentration‐dependent manner”. On XO from bovine milk [2] (setting [7]), the “Concentration with significant XO inhibition” value is reported as at least 1 mM.

Take “Ala‐Leu‐Pro‐Met [ALPM, milk protein-derived peptide used for comparison]”: the “XO inhibitory activity (inhibition ratio)” value at XO from bovine milk [1] (experiment of Figure 5) is recorded as 45.0% ± 1.0. Further, on XO from bovine milk [1] (LC-MS/MS), the “Concentration dependence of XO inhibition” value was “increase in the inhibition ratio in a concentration‐dependent manner” and the “Concentration with significant XO inhibition” value is on record as at least 5 mM. Moreover, the “XO inhibition reported earlier” value in the assay on xanthine oxidase (XO) (ref Qi et al. [2022a], [2022b]) was “inhibit XO”. Moreover, the XO inhibitory activity on XO from bovine milk [2] (setting [6]) is 25.2% ± 1.9. In addition, at XO from bovine milk [2] (n = 3), the “Suppression of the absorbance increase / enzymatic reaction compared with control (relative absorbance)” value is “suppressed this increase compared with the control”. Moreover, on XO from bovine milk [2] (setting [7]), the “Concentration with significant XO inhibition” value worked out at 20 mM. For the same compound, in assay [4], the Renal dysfunction result is “improve renal dysfunction” and the “Serum uric acid (SUA) levels” value is reported as “reduce SUA levels”.

Gly‐Leu: the half-inhibitory concentration (IC50) at xanthine oxidase (XO) was 10.2 mM.

Consider “Pro‐Glu‐Trp [PEW, peptide derived from milk proteins]”, for which the “XO inhibition reported earlier” value with xanthine oxidase (XO) (ref Qi et al. [2022a], [2022b]) is recorded as “inhibit XO”. In addition, the “XO inhibition reported earlier” value in the assay on xanthine oxidase (XO) (ref Qi et al. [2023], [2024]) was “known for their XO inhibitory activities”. Moreover, in assay [3], the “Expression of genes related to UA synthesis in the liver” value is given as “reduce the expression of genes related to UA synthesis in the liver” and the “Gene expression for UA excretion in the kidneys” value is listed as “enhance gene expression for UA excretion in the kidneys”.

In the case of Phe‐His, on xanthine oxidase (XO), the IC50 was 25.7 mM.

For `Oc1ncnc2[nH]ncc12` [allopurinol], the “Concentration dependence of XO inhibition” value on XO from bovine milk [1] (LC-MS/MS) is on record as “significantly inhibited XO activity in a concentration‐dependent manner”. Besides, the “Concentration with significant XO inhibition” value at XO from bovine milk [1] (allopurinol positive control, LC-MS/MS) is at least 0.001 mM; at XO from bovine milk [2] (allopurinol positive control, 1-50 μM tested, n = 3, Figure 3), at least 0.001 mM. Further, in the assay on xanthine oxidase (XO) (ref Klein et al. [1996]), the “XO inhibition reported earlier” value is recorded as “reported to have XO inhibitory activity”. Also, the “Suppression of the absorbance increase / enzymatic reaction compared with control (relative absorbance)” value at XO from bovine milk [2] (n = 3) is listed as “suppressed the increase in absorbance in a concentration‐dependent manner”. In addition, the “Concentration dependence of XO inhibitory activity” value at XO from bovine milk [2] (Figure 3) is listed as “increased with rising concentrations in a concentration‐dependent manner”.
